The source of these data is ChEMBL document CHEMBL1156873 (Bioorg Med Chem Lett, 2010).

One series relates to LNCaP. Nature of the series: Cytotoxicity against human LNCAP cells. Format: functional, cell-based.
A short description of series [1]: Half life in nude mouse microsomes. It counts as ADME, Microsome.
The target in series [2] is Serine/threonine-protein kinase mTOR (Homo sapiens, UniProt P42345). Nature of the series: Inhibition of mTOR.
The nature of series [3]: Half life in human microsomes. It counts as ADME, Microsome.
Series [4] deals with Mus musculus. The series can be described thus: Inhibition of mTOR in nude mouse bearing human MDA-MB-361 cells assessed as reduction of phosphorylated S6K (T389) level at 25 mg/kg, iv after 8 hrs. It counts as functional, organism-based. On the set-up: dose 25 mg/kg.
For series [5], the system named is Mus musculus. Nature of the series: Inhibition of mTOR in nude mouse bearing human MDA-MB-361 cells assessed as reduction of phosphorylated AKT (S473) level at 25 mg/kg, iv after 8 hrs. It counts as functional, organism-based. On the set-up: dose 25 mg/kg.
The subject of series [6] is Mus musculus. Nature of the series: Inhibition of mTOR in nude mouse bearing human MDA-MB-361 cells assessed as reduction of phosphorylated S6 (S240/244) level at 25 mg/kg, iv after 8 hrs. Format: functional, organism-based. On the set-up: dose 25 mg/kg.
Series [7] relates to MDA-MB-361. The series can be described thus: Antitumor activity against human MDA-MB-361 cells xenografted in nude mouse assessed as inhibition of tumor growth at 10 mg/kg, po daily once for 5 days measured up to 17 days. On the set-up: dose 10 mg/kg. Format: functional, organism-based. A general note: A xenograft is tissue or cells of one species grown in another, often human tumour cells in immunodeficient mice.

For series [8], the system named is MDA-MB-361. The series can be described thus: Antitumor activity against human MDA-MB-361 cells xenografted in nude mouse assessed as inhibition of tumor growth at 20 mg/kg, po daily once for 5 days measured up to 17 days. Format: functional, organism-based. On the set-up: dose 20 mg/kg.
Series [9] has as its system Mus musculus. The series can be described thus: Toxicity in nude mouse assessed as body weight change at 10 mg/kg, po daily once for 5 days. Particulars: in vivo, 120 h. Format: organism-based. On the set-up: dose 10 mg/kg, route oral.
Series [10] has as its system Mus musculus. Nature of the series: Toxicity in nude mouse assessed as body weight change at 20 mg/kg, po daily once for 5 days. It counts as organism-based. On the set-up: dose 20 mg/kg, route oral. As to conditions: in vivo, 120 h.

Calls of active or inactive are those of the source.

Regarding `CNC(=O)Nc1ccc(-c2nc(N3CC4CCC(C3)O4)c3cnn(C4CCN(C(=O)OC)CC4)c3n2)cc1`, in the series with LNCaP, half-maximal inhibition (IC50) required 26 nM. In addition, the half-life in [1] is > 30 min.
Consider `O=C(Nc1ccncc1)Nc1ccc(-c2nc(N3CC4CCC(C3)O4)c3cnn(C4CCC5(CC4)OCCO5)c3n2)cc1`, for which the IC50 in series [2] stood at 0.12 nM; in the series with LNCaP, 1 nM. Also, the half-life in [1] was > 30 min; in series [3], 13 min.
As to `CNC(=O)Nc1ccc(-c2nc(N3CC4CCC(C3)O4)c3cnn(C4CCN(C(=O)OC(C)(C)C)CC4)c3n2)cc1`, the IC50 in [2] worked out at 0.26 nM; in the series on LNCaP it was 27 nM. In addition, the half-life in series [1] is 11 min.
Turning to `O=C(Nc1ccccc1)Nc1ccc(-c2nc(N3CC4CCC(C3)O4)c3cnn(C4CCC5(CC4)OCCO5)c3n2)cc1`, the figures for the IC50 (in series [2]; in the series on LNCaP) were 0.16 nM and 4 nM, respectively. Besides, the half-life in series [1] was > 30 min; in series [3] it was 13 min.
Turning to `CNC(=O)Nc1ccc(-c2nc(N3CC4CCC(C3)O4)c3cnn(C)c3n2)cc1`, the IC50 amounted to 1.34 nM in series [2] and 170 nM in the series on LNCaP. Moreover, in [1], the half-life is > 30 min.
Regarding `CCNC(=O)Nc1ccc(-c2nc(N3CC4CCC(C3)O4)c3cnn(C4CCC5(CC4)OCCO5)c3n2)cc1`, inhibition with LNCaP was half-maximal at 1 nM (IC50). For the same compound, the half-life in [1] was found to be 27 min; in [3], 10 min.
The like results for `CNC(=O)Nc1ccc(-c2nc(N3CC4CCC(C3)O4)c3cnn(CC(F)(F)F)c3n2)cc1` were, in that order, 38 nM, > 30 min and 5 min.
Consider `CCn1ncc2c(N3CC4CCC(C3)O4)nc(-c3ccc(NC(=O)NC)cc3)nc21`, for which the IC50 in series [2] was 0.74 nM; with LNCaP it was 70 nM. Further, the half-life in series [1] is > 30 min.
`CNC(=O)Nc1ccc(-c2nc(N3CC4CCC(C3)O4)c3cnn([C@H]4CC[C@@H](O)CC4)c3n2)cc1`: the IC50 in series [2] stood at 0.3 nM; in the series on LNCaP it was 20 nM. Moreover, the half-life in series [1] and in series [3] was > 30 min in each case.
`CNC(=O)Nc1ccc(-c2nc(N3CC4CCC(C3)O4)c3cnn(C4CCC5(CC4)OCCCO5)c3n2)cc1` yielded an IC50 in the series with LNCaP of 8 nM. The half-life in series [1] and in series [3] was > 30 min throughout.
In the series with LNCaP, `CNC(=O)Nc1ccc(-c2nc(N3CC4CCC(C3)O4)c3cnn(C4CCC(=O)CC4)c3n2)cc1` had an IC50 of 32 nM. Further, the half-life was found to be 20 min in [1] and 10 min in [3].
Turning to `CNC(=O)Nc1ccc(-c2nc(N3CC4CCC(C3)O4)c3cnn(C(C)C)c3n2)cc1`, the figures for the half-maximal inhibitory concentration (IC50) (in series [2]; with LNCaP) were 0.12 nM and 5 nM, respectively. The half-life in series [1] is > 30 min; in series [3], 12 min.
In the series on LNCaP, `CNC(=O)Nc1ccc(-c2nc(N3CC4CCC(C3)O4)c3cnn(CCN(C)C)c3n2)cc1` came in with a half-inhibitory concentration (IC50) of 400 nM. In [1], this compound returned a half-life of 5 min.
The like results for `CNC(=O)Nc1ccc(-c2nc(N3CC4CCC(C3)O4)c3cnn([C@H]4CC[C@@H](OC)CC4)c3n2)cc1` were, in that order, 1 nM and 17 min.
For `CNC(=O)Nc1ccc(-c2nc(N3CC4CCC(C3)O4)c3cnn([C@H]4CC[C@H](O)CC4)c3n2)cc1`, the IC50 in series [2] was found to be 0.24 nM; in the series on LNCaP, 20 nM. Further, the half-life in [1] and in [3] was > 30 min each time.
On to `CNC(=O)Nc1ccc(-c2nc(N3CC4CCC(C3)O4)c3cnn([C@H]4CC[C@H](OC)CC4)c3n2)cc1`, for which the results for the half-inhibitory concentration (IC50) (in series [2]; in the series with LNCaP) were 0.38 nM and 2 nM, respectively. Further, the half-life was > 30 min in [1] and 15 min in series [3].
For `O=C(Nc1ccc(-c2nc(N3CC4CCC(C3)O4)c3cnn(C4CCC5(CC4)OCCO5)c3n2)cc1)NC1CC1`, half-maximal inhibition in the series on LNCaP (IC50) required 2 nM. For the same compound, the half-life worked out at 25 min in [1] and 9 min in series [3].
Turning to `CNC(=O)Nc1ccc(-c2nc(N3CC4CCC(C3)O4)c3cnn(C4CCN(C(=O)OC(C)C)CC4)c3n2)cc1`, the IC50 in series [2] is 0.19 nM; with LNCaP, 6 nM. In addition, in series [1], the half-life amounted to 21 min.
Compound `CNC(=O)Nc1ccc(-c2nc(N3CC4CCC(C3)O4)c3cnn(C4CCC5(CC4)OCCO5)c3n2)cc1` yielded a 50% inhibitory concentration (IC50) in the series with LNCaP of 2 nM. Further, the figures for the half-life in [1] and in series [3] were > 30 min and 26 min, respectively. Besides, the result with Mus musculus [4], in the series on Mus musculus [5], in the series with Mus musculus [6], in the series on MDA-MB-361 [7] and with MDA-MB-361 [8] was Active. In addition, the Activity result in the series on Mus musculus [9] and in the series with Mus musculus [10] was “Non-toxic” in each case.
With `O=C(NCCF)Nc1ccc(-c2nc(N3CC4CCC(C3)O4)c3cnn(C4CCC5(CC4)OCCO5)c3n2)cc1`, the IC50 in series [2] turned out to be 0.22 nM; in the series with LNCaP, 1 nM. In addition, the results for the half-life in series [1] and in [3] were > 30 min and 16 min, respectively.
With `O=C(Nc1ccc(-c2nc(N3CC4CCC(C3)O4)c3cnn(C4CCC5(CC4)OCCO5)c3n2)cc1)Nc1cccnc1`, the 50% inhibitory concentration (IC50) in [2] was 0.12 nM; in the series with LNCaP, 1 nM. Moreover, the values for the half-life in [1] and in series [3] were > 30 min and 13 min, respectively.
In the series with LNCaP, `CNC(=O)Nc1ccc(-c2nc(N3CC4CCC(C3)O4)c3cnn(C4CCC(OC)(OC)CC4)c3n2)cc1` returned an IC50 of 2 nM. Besides, the values for the half-life in [1] and in [3] were 15 min and 30 min, respectively.
As to `CNC(=O)Nc1ccc(-c2nc(N3CC4CCC(C3)O4)c3cnn(CCO)c3n2)cc1`, the IC50 in the series on LNCaP was 650 nM.

The term IC50 denotes the point on the concentration scale where inhibition reaches its midpoint. In general, half-life refers to the time needed for the level to fall by half in the phase considered. A high value points to slow decline.
